Measured values: BindingDB's records for doi:10.1016/j.bmcl.2013.08.079 (Saint John'S University, 2013)

Molecular target: Low molecular weight phosphotyrosine protein phosphatase (Homo sapiens) (UniProt P24666)
Test: Noncompetitive inhibition of human GST-tagged LMW-PTP-B expressed in Escherichia coli JM 109 cells using p-nitrophenyl phosphate as substrate after 15 mins by microplate reader analysis

Sequence of Low molecular weight phosphotyrosine protein phosphatase (Homo sapiens) (P24666 whole entry, looked up): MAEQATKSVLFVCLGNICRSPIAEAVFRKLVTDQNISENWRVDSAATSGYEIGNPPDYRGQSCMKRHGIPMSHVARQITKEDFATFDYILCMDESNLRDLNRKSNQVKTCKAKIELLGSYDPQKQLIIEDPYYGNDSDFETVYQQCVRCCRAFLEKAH

Compound | Ki [µM]
O=C(O)c1nc2nc(Cl)c(Cl)nc2[nH]1 | 26
CC(=O)Nc1c(C)cc(OCC(=O)O)cc1C | 73.2
